Data taken from PubChem BioAssay AID1963837 (Molecular Pharmacology Branch, DTP, NCI, 2024).

System: 843126-344-R-J1-PDC complex spheroid viability
Experiment: Anticancer human tumor 843126-344-R-J1-PDC patient-derived melanoma cell line growth inhibition [POLQ]
Settings: for IC50: curve of first compound; for viability, T/C: stronger effect = lower value
Summary of the method: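 Three-cell-type spheroids modelling solid tumor plus stroma served as the readout system; POL inhibitors were tested individually and in combination, concentration ranges set by clinical Cmax where known.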

[1] = second compound 0.0316 µM, first compound 0.0316 µM
[2] = second compound 0.0316 µM, first compound 0.1 µM
[3] = second compound 0.0316 µM, first compound 0.316 µM
[4] = second compound 0.0316 µM, first compound 1 µM
[5] = second compound 0.1 µM, first compound 0.0316 µM
[6] = second compound 0.1 µM, first compound 0.1 µM
[7] = second compound 0.1 µM, first compound 0.316 µM
[8] = second compound 0.1 µM, first compound 1 µM
[9] = second compound 0.316 µM, first compound 0.0316 µM
[10] = second compound 0.316 µM, first compound 0.1 µM
[11] = second compound 0.316 µM, first compound 0.316 µM
[12] = second compound 0.316 µM, first compound 1 µM
[13] = second compound 1 µM, first compound 0.0316 µM
[14] = second compound 1 µM, first compound 0.1 µM
[15] = second compound 1 µM, first compound 0.316 µM
[16] = second compound 1 µM, first compound 1 µM
[17] = second compound 3.16 µM, first compound 0.0316 µM
[18] = second compound 3.16 µM, first compound 0.1 µM
[19] = second compound 3.16 µM, first compound 0.316 µM
[20] = second compound 3.16 µM, first compound 1 µM
[21] = second compound 10 µM, first compound 0.0316 µM
[22] = second compound 10 µM, first compound 0.1 µM
[23] = second compound 10 µM, first compound 0.316 µM
[24] = second compound 10 µM, first compound 1 µM
[25] = second compound 0.0316 µM, first compound 3.16 µM
[26] = second compound 0.0316 µM, first compound 10 µM
[27] = second compound 0.1 µM, first compound 3.16 µM
[28] = second compound 0.1 µM, first compound 10 µM
[29] = second compound 0.316 µM, first compound 3.16 µM
[30] = second compound 0.316 µM, first compound 10 µM
[31] = second compound 1 µM, first compound 3.16 µM
[32] = second compound 1 µM, first compound 10 µM
[33] = second compound 3.16 µM, first compound 3.16 µM
[34] = second compound 3.16 µM, first compound 10 µM
[35] = second compound 10 µM, first compound 3.16 µM
[36] = second compound 10 µM, first compound 10 µM
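Throughout, for viability, T/C: spheroids exposed to drugs for seven days before readout.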

## C=CCn1c(=O)c2cnc(Nc3ccc(N4CCN(C)CC4)cc3)nc2n1-c1cccc(C(C)(C)O)n1 + Nc1ccc(C#CCN(C(=O)Cc2ncc(C(F)(F)F)cc2C(F)(F)F)c2ccc(F)cc2)nn1
Second compound 0.0316 µM
  IC50: > 1 µM
Second compound 0.1 µM
  IC50: > 1 µM
Second compound 0.316 µM
  IC50: > 1 µM
Second compound 1 µM
  IC50: > 1 µM
Second compound 3.16 µM
  IC50: > 1 µM
Second compound 10 µM
  IC50: > 1 µM
Second compound 0.0316 µM, first compound 0.00316 µM
  viability, T/C: 93.9%
Second compound 0.0316 µM, first compound 0.01 µM
  viability, T/C: 81.2%
[1]
  viability, T/C: 98.9%
[2]
  viability, T/C: 110%
[3]
  viability, T/C: 101%
[4]
  viability, T/C: 81.9%
Second compound 0.1 µM, first compound 0.00316 µM
  viability, T/C: 91.9%
Second compound 0.1 µM, first compound 0.01 µM
  viability, T/C: 92.1%
[5]
  viability, T/C: 104%
[6]
  viability, T/C: 85.9%
[7]
  viability, T/C: 86.5%
[8]
  viability, T/C: 77.6%
Second compound 0.316 µM, first compound 0.00316 µM
  viability, T/C: 95.1%
Second compound 0.316 µM, first compound 0.01 µM
  viability, T/C: 90.7%
[9]
  viability, T/C: 98.8%
[10]
  viability, T/C: 105%
[11]
  viability, T/C: 93.6%
[12]
  viability, T/C: 72%
Second compound 1 µM, first compound 0.00316 µM
  viability, T/C: 106%
Second compound 1 µM, first compound 0.01 µM
  viability, T/C: 80.8%
[13]
  viability, T/C: 87.7%
[14]
  viability, T/C: 90.4%
[15]
  viability, T/C: 85.4%
[16]
  viability, T/C: 86.4%
Second compound 3.16 µM, first compound 0.00316 µM
  viability, T/C: 91.2%
Second compound 3.16 µM, first compound 0.01 µM
  viability, T/C: 84.2%
[17]
  viability, T/C: 92.5%
[18]
  viability, T/C: 106%
[19]
  viability, T/C: 75%
[20]
  viability, T/C: 59.8%
Second compound 10 µM, first compound 0.00316 µM
  viability, T/C: 94.1%
Second compound 10 µM, first compound 0.01 µM
  viability, T/C: 83.7%
[21]
  viability, T/C: 84.5%
[22]
  viability, T/C: 91.9%
[23]
  viability, T/C: 79.1%
[24]
  viability, T/C: 74.5%

## CCCS(=O)(=O)Nc1ccc(F)c(C(=O)c2c[nH]c3ncc(-c4ccc(Cl)cc4)cc23)c1F + Nc1ccc(C#CCN(C(=O)Cc2ncc(C(F)(F)F)cc2C(F)(F)F)c2ccc(F)cc2)nn1
Second compound 0.0316 µM
  IC50: > 10 µM
Second compound 0.1 µM
  IC50: > 10 µM
Second compound 0.316 µM
  IC50: > 10 µM
Second compound 1 µM
  IC50: > 10 µM
Second compound 3.16 µM
  IC50: > 10 µM
Second compound 10 µM
  IC50: > 10 µM
[1]
  viability, T/C: 86%
[2]
  viability, T/C: 92.7%
[3]
  viability, T/C: 98.9%
[4]
  viability, T/C: 77.9%
[25]
  viability, T/C: 77.5%
[26]
  viability, T/C: 86.7%
[5]
  viability, T/C: 82%
[6]
  viability, T/C: 91.8%
[7]
  viability, T/C: 82.8%
[8]
  viability, T/C: 82.3%
[27]
  viability, T/C: 78.1%
[28]
  viability, T/C: 57.4%
[9]
  viability, T/C: 85.8%
[10]
  viability, T/C: 92.8%
[11]
  viability, T/C: 88.9%
[12]
  viability, T/C: 87.4%
[29]
  viability, T/C: 77.5%
[30]
  viability, T/C: 82%
[13]
  viability, T/C: 93.5%
[14]
  viability, T/C: 91.8%
[15]
  viability, T/C: 71%
[16]
  viability, T/C: 85.5%
[31]
  viability, T/C: 77.2%
[32]
  viability, T/C: 76.2%
[17]
  viability, T/C: 86.4%
[18]
  viability, T/C: 105%
[19]
  viability, T/C: 95.2%
[20]
  viability, T/C: 78%
[33]
  viability, T/C: 62.7%
[34]
  viability, T/C: 63.4%
[21]
  viability, T/C: 93.3%
[22]
  viability, T/C: 79.9%
[23]
  viability, T/C: 79.7%
[24]
  viability, T/C: 82.3%
[35]
  viability, T/C: 74%
[36]
  viability, T/C: 75.4%

## CNCc1ccc(-c2[nH]c3cc(F)cc4c3c2CCNC4=O)cc1 + Nc1ccc(C#CCN(C(=O)Cc2ncc(C(F)(F)F)cc2C(F)(F)F)c2ccc(F)cc2)nn1
Second compound 0.0316 µM
  IC50: > 10 µM
Second compound 0.1 µM
  IC50: > 10 µM
Second compound 0.316 µM
  IC50: > 10 µM
Second compound 1 µM
  IC50: > 10 µM
Second compound 3.16 µM
  IC50: > 10 µM
Second compound 10 µM
  IC50: > 10 µM
[1]
  viability, T/C: 104%
[2]
  viability, T/C: 92.1%
[3]
  viability, T/C: 100%
[4]
  viability, T/C: 108%
[25]
  viability, T/C: 98.5%
[26]
  viability, T/C: 83.4%
[5]
  viability, T/C: 96.4%
[6]
  viability, T/C: 103%
[7]
  viability, T/C: 101%
[8]
  viability, T/C: 95%
[27]
  viability, T/C: 94.3%
[28]
  viability, T/C: 88.5%
[9]
  viability, T/C: 95.8%
[10]
  viability, T/C: 105%
[11]
  viability, T/C: 97.3%
[12]
  viability, T/C: 103%
[29]
  viability, T/C: 94.4%
[30]
  viability, T/C: 84.3%
[13]
  viability, T/C: 103%
[14]
  viability, T/C: 103%
[15]
  viability, T/C: 95.9%
[16]
  viability, T/C: 117%
[31]
  viability, T/C: 102%
[32]
  viability, T/C: 86.3%
[17]
  viability, T/C: 92.6%
[18]
  viability, T/C: 86.3%
[19]
  viability, T/C: 95.2%
[20]
  viability, T/C: 83.6%
[33]
  viability, T/C: 98.2%
[34]
  viability, T/C: 90.9%
[21]
  viability, T/C: 91.3%
[22]
  viability, T/C: 89.1%
[23]
  viability, T/C: 91.9%
[24]
  viability, T/C: 92.9%
[35]
  viability, T/C: 91.5%
[36]
  viability, T/C: 85.9%
